Measured values taken from publication PMC8005870, “Membrane Lipid Requirements of the Lysine Transporter Lyp1 from Saccharomyces cerevisiae” (Journal of molecular biology, 2020).

Target: T1, Lyp1 (Lyp1-GFP) (Saccharomyces cerevisiae, UniProt P32487)
T1 construct: full-length Lyp1 with C-terminal TEV-GFP-His10 kept, expressed in Pichia pastoris SMD1163, DDM-solubilised, purified by IMAC and FSEC, reconstituted in proteoliposomes
T1 sequence (P32487 1-611): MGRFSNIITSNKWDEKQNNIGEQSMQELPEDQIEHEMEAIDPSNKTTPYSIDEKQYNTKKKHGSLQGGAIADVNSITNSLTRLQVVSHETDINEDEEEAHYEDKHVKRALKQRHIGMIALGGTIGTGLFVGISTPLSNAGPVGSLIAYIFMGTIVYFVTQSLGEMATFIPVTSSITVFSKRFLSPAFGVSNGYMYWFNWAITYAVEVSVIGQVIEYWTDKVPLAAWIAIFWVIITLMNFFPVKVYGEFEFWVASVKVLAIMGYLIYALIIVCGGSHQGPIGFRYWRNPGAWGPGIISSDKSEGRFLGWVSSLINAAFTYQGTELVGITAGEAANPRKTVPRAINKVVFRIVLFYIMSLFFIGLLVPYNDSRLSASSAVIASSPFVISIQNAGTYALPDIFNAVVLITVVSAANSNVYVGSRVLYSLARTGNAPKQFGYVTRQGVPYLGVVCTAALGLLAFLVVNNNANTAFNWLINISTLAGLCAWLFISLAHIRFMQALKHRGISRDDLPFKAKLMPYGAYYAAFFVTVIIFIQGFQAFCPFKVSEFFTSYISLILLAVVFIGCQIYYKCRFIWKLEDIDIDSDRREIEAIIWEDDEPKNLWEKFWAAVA
Assay: lysine transport turnover versus mol% lipid in proteoliposomes
Format: biochemical
Conditions: proton motive force about -160 mV (valinomycin K+ diffusion potential plus acetate gradient), pH 6.0; defined lipid vesicles; POPS titrated in POPS/POPE/ergosterol vesicles; sigmoidal, cooperative lip

CCCCCCCC/C=C\CCCCCCCC(=O)O[C@H](COC(=O)CCCCCCCCCCCCCCC)COP(=O)(O)OC[C@H](N)C(=O)O [POPS, 1-palmitoyl-2-oleoyl-sn-glycero-3-phosphoserine] was tested, and the “lysine transport turnover versus mol% lipid in proteoliposomes” value was “We found a sigmoidal relationship between Lyp1 activity and POPS concentration”.
